Test results from patent US20260262643A1, “HERBICIDAL BENZOXAZINES” (FMC CORPORATION, priority 2022, published 2026).
Where two headings read alike, the source gives them in different places.

Legend:
blackgrass [1] = assay: Test A preemergence; format: in vivo, Alopecurus myosuroides; settings: Alopecurus myosuroides, pre-emergence, 240 h, read-out: Plant response rating, Blackgrass
Outline: (§1)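 Loam/sand soil; pre-em directed soil spray at planting, post-em spray at 1–2 leaf (2–10 cm). Compound in non-phytotoxic solvent + surfactant. Greenhouse 10 d; visual injury vs untreated, 0 = no effect, 100 = complete control.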

goosegrass [2] = assay: Test A preemergence; format: in vivo, Eleusine indica; settings: Eleusine indica, pre-emergence, 240 h, read-out: Plant response rating, Goosegrass; for pest or weed control at 125 g/ha: 125 g ai/ha; for pest or weed control at 500 g/ha: 500 g ai/ha
Outline: as §1

kochia = assay: Test A preemergence; format: in vivo, Bassia scoparia; settings: Bassia scoparia, pre-emergence, 240 h, read-out: Plant response rating, Kochia; for pest or weed control at 125 g/ha: 125 g ai/ha; for pest or weed control at 500 g/ha: 500 g ai/ha
Outline: as §1

pigweed, palmer [3] = assay: Test A preemergence; format: in vivo, Amaranthus palmeri; settings: Amaranthus palmeri, pre-emergence, 240 h, read-out: Plant response rating, Pigweed, Palmer; for pest or weed control at 125 g/ha: 125 g ai/ha; for pest or weed control at 500 g/ha: 500 g ai/ha
Outline: as §1

ryegrass, Italian = assay: Test A preemergence; format: in vivo, Lolium multiflorum; settings: Lolium multiflorum, pre-emergence, 240 h, read-out: Plant response rating, Ryegrass, Italian; for pest or weed control at 125 g/ha: 125 g ai/ha; for pest or weed control at 500 g/ha: 500 g ai/ha
Outline: as §1

soybean = assay: Test A preemergence; format: in vivo, Glycine max; settings: Glycine max, pre-emergence, 240 h, read-out: Plant response rating, Soybean; for plant injury at 125 g/ha: 125 g ai/ha; for plant injury at 500 g/ha: 500 g ai/ha
Outline: as §1

blackgrass [4] = assay: Test A postemergence; format: in vivo, Alopecurus myosuroides; settings: Alopecurus myosuroides, post-emergence, 240 h; for pest or weed control at 125 g/ha: 125 g ai/ha; for pest or weed control at 500 g/ha: 500 g ai/ha
Outline: as §1

goosegrass [5] = assay: Test A postemergence; format: in vivo, Eleusine indica; settings: Eleusine indica, post-emergence, 240 h, postemergence, 10 days, 0 to 100 scale (0 no effect, 100 complete control); for pest or weed control at 125 g/ha: 125 g ai/ha; for pest or weed control at 500 g/ha: 500 g ai/ha
Outline: as §1

oat, wild = assay: Test A postemergence; format: in vivo, Avena fatua; settings: Avena fatua, post-emergence, 240 h, postemergence, 10 days, 0 to 100 scale (0 no effect, 100 complete control); for pest or weed control at 500 g/ha: 500 g ai/ha, visual injury, read-out: Plant response rating, Oat, Wild
Outline: as §1

pigweed, palmer [6] = assay: Test A postemergence; format: in vivo, Amaranthus palmeri; settings: Amaranthus palmeri, post-emergence, 240 h, postemergence, 10 days, 0 to 100 scale (0 no effect, 100 complete control); for pest or weed control at 500 g/ha: 500 g ai/ha, visual injury, read-out: Plant response rating, Pigweed, Palmer
Outline: as §1

ragweed = assay: Test A postemergence; format: in vivo, Ambrosia artemisiifolia; settings: Ambrosia artemisiifolia, post-emergence, 240 h, postemergence, 10 days, 0 to 100 scale (0 no effect, 100 complete control); for pest or weed control at 500 g/ha: 500 g ai/ha, visual injury, read-out: Plant response rating, Ragweed
Outline: as §1

horseweed = assay: Test A postemergence; format: in vivo, Erigeron canadensis; settings: Erigeron canadensis, post-emergence, 240 h, postemergence, 10 days, 0 to 100 scale (0 no effect, 100 complete control); for pest or weed control at 125 g/ha: 125 g ai/ha; for pest or weed control at 500 g/ha: 500 g ai/ha
Outline: as §1

sedge, umbrella = assay: Test B flooded paddy test; format: in vivo, Cyperus difformis; settings: Cyperus difformis, 312 h; 250 g ai/ha, Flood, 13 days, 0 to 100 scale (0 no effect, 100 complete control); read-out: Plant response rating, Sedge, Umbrella
Outline: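 Percent weed or crop control, judged by eye on a 0–100 scale 13 days post-treatment, reflects compound added to a 3 cm flood maintained over 2-leaf plants in the greenhouse. Missing entries are marked with a dash.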

[7] = visual injury after 10 days, 0 to 100 scale, 0 is no effect, 100 is complete control
[8] = 0 to 100 scale (0 no effect, 100 complete control), 10 days
[9] = postemergence, 10 days, visual injury, 0 to 100 scale (0 no effect, 100 complete control), read-out: Plant response rating, Blackgrass
[10] = Postemergence, 0 to 100 scale, read-out: Plant response rating, Blackgrass
[11] = visual injury, read-out: Plant response rating, Goosegrass
[12] = visual injury, read-out: Plant response rating, Horseweed

| Structure (SMILES) | pest or weed control at 125 g/ha (goosegrass [2]; [7]) | pest or weed control at 500 g/ha (goosegrass [2]; [8]) | pest or weed control at 125 g/ha (kochia; [7]) | pest or weed control at 500 g/ha (kochia; [8]) | pest or weed control at 125 g/ha (pigweed, palmer [3]; [7]) | pest or weed control at 500 g/ha (pigweed, palmer [3]; [8]) | pest or weed control at 125 g/ha (ryegrass, Italian; [7]) | pest or weed control at 500 g/ha (ryegrass, Italian; [8]) | plant injury at 125 g/ha (soybean; [7]) | plant injury at 500 g/ha (soybean; [8]) | pest or weed control at 125 g/ha (blackgrass [4]; [9]) | pest or weed control at 500 g/ha (blackgrass [4]; [10]) | pest or weed control at 125 g/ha (goosegrass [5]; [11]) | pest or weed control at 500 g/ha (goosegrass [5]; [11]) | pest or weed control at 500 g/ha (oat, wild) | pest or weed control at 500 g/ha (pigweed, palmer [6]) | pest or weed control at 500 g/ha (ragweed) | pest or weed control at 125 g/ha (horseweed; [12]) | pest or weed control at 500 g/ha (horseweed; [12]) | pest or weed control at 250 g/ha (sedge, umbrella) | other results |
| --- | --- | --- | --- | --- | --- | --- | --- | --- | --- | --- | --- | --- | --- | --- | --- | --- | --- | --- | --- | --- | --- |
| Cc1ncn(-c2ccc(C)c(C(=O)N3C[C@H](C)Oc4c(Cl)cccc43)c2)n1 (single isomer, unassigned) [Compound 74] | 100% | 100% | 40% | 100% | 90% | 100% | 100% | 100% | 70% | 100% | 70% | 90% | 0% | 0% | 60% | 70% | 50% | 0% | 0% | 95% | pest or weed control at 125 g/ha (blackgrass [1]; 125 g ai/ha, visual injury after 10 days, 0 to 100 scale, 0 is no effect, 100 is complete control): 70%; pest or weed control at 500 g/ha (blackgrass [1]; 500 g ai/ha, 0 to 100 scale (0 no effect, 100 complete control), 10 days): 90% |
| Cc1ccc(-n2ncnc2C)cc1C(=O)N1C[C@H](C)Oc2c(Cl)cccc21 (single isomer, unassigned) [Compound 126] | 20% | – | 0% | – | 20% | – | 40% | – | 0% | – | – | – | – | 0% | 50% | 30% | 50% | – | 40% | 0% | pest or weed control at 500 g/ha (goosegrass [2]; [7]): 90%; pest or weed control at 500 g/ha (kochia; [7]): 0%; pest or weed control at 500 g/ha (pigweed, palmer [3]; [7]): 60%; pest or weed control at 500 g/ha (ryegrass, Italian; [7]): 70%; plant injury at 500 g/ha (soybean; [7]): 50%; pest or weed control at 125 g/ha (blackgrass [4]; postemergence, 10 days, 0 to 100 scale (0 no effect, 100 complete control), read-out: Blackgrass plant response rating): 0%; pest or weed control at 500 g/ha (blackgrass [4]; [9]): 40%; pest or weed control at 125 g/ha (goosegrass [5]; read-out: Goosegrass plant response rating): 0%; pest or weed control at 125 g/ha (oat, wild; 125 g ai/ha, read-out: Oat, Wild plant response rating): 0%; pest or weed control at 125 g/ha (pigweed, palmer [6]; 125 g ai/ha, read-out: Pigweed, Palmer plant response rating): 0%; pest or weed control at 125 g/ha (ragweed; 125 g ai/ha, read-out: Ragweed plant response rating): 30%; pest or weed control at 125 g/ha (horseweed; read-out: Horseweed plant response rating): 0% |
| Cc1ccc(-n2cnc(C(C)(C)C)n2)cc1C(=O)N1C[C@H](C)Oc2c(Cl)cccc21 [Compound 76, [(2S)-8-Chloro-2,3-dihydro-2-methyl-4H-1,4-benzoxazin-4-yl][5-[3-(1,1-dimethylethyl)-1H-1,2,4-triazol-1-yl]-2-methylphenyl]methanone] | 100% | 100% | 70% | 100% | 100% | 100% | 100% | 100% | 50% | 100% | 70% | 70% | 50% | 80% | 90% | 100% | 60% | 70% | 80% | 98% | – |
